Test systems include OVCAR-3 ovarian; CAKI-1 renal; TK-10 renal; UACC-257 melanoma; SNB-75 CNS; HL-60(TB) leukemia; SN12C renal; EKVX NSCLC; OVCAR-5 ovarian; SK-MEL-28 melanoma.
Assay in all cases: growth of human tumour cells (NCI), 48 h

Each structure is given as a SMILES string. Values joined by “and” are separate entries in the source; they are usually repeats but may differ in a detail not shown here. Equal entries are not always repeated.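 Method: 48-hour compound exposure of cells in 96-well plates, five concentrations, linear interpolation of endpoints. GI50: concentration for 50% inhibition of growth. At the TGI there is no net growth.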 Bounds are passed on as bounds.

As to `CCOc1ccc(NC(=O)/C(=C/c2ccccc2)C(C)=O)cc1`, the TGI with OVCAR-3 ovarian amounted to 25.3 µM; with CAKI-1 renal, 25.3 µM; in the experiment on TK-10 renal, 32.9 µM; in the experiment with UACC-257 melanoma it was 27.9 µM; in the experiment with SNB-75 CNS, 17.9 µM; with HL-60(TB) leukemia, 9.66 µM. Besides, the TGI came out at 35 µM in the experiment on SN12C renal, 35.4 µM with EKVX NSCLC, 36.5 µM with OVCAR-5 ovarian and 26 µM in the experiment on SK-MEL-28 melanoma.
Turning to `C=C1C(=O)C23C(O)C1CCC2C12CO[C@]3(O)[C@@H](O)C1C(C)(C)CCC2O` (stereo not given in full), the TGI in the experiment with OVCAR-3 ovarian is 30.3 µM; with CAKI-1 renal it was 28.5 µM; in the experiment on TK-10 renal, 34.3 µM; with UACC-257 melanoma, 23.8 µM; with SNB-75 CNS it was 29.3 µM; in the experiment with HL-60(TB) leukemia, greater than 100 µM. In addition, the TGI was determined as 27.9 µM in the experiment with SN12C renal, 28.9 µM with EKVX NSCLC, 34.5 µM in the experiment with OVCAR-5 ovarian and 11.4 µM with SK-MEL-28 melanoma.
As for `CC1OC(OC2C(OC3CCC4(C)C(CCC5(C)C4CC=C4C6CC(C)(C)CCC6(CO)C(O)CC45C)C3(C)C)OC(C(=O)O)C(OC3OC(COC4OC(CO)C(O)C(O)C4O)C(O)C(O)C3O)C2O)C(O)C(O)C1O` (stereo not given), the GI50 is 12.7 µM in the experiment with OVCAR-3 ovarian; 10.6 µM in the experiment on CAKI-1 renal; 16.1 µM with TK-10 renal; 13.2 µM in the experiment on UACC-257 melanoma; 11.2 µM in the experiment on SNB-75 CNS; 1.5 µM in the experiment on HL-60(TB) leukemia. The GI50 with SN12C renal was 2.46 µM; in the experiment on EKVX NSCLC, 2.41 µM; in the experiment with OVCAR-5 ovarian, 5.17 µM; in the experiment with SK-MEL-28 melanoma it was 1.96 µM. Besides, the TGI came out at 24.7 µM with OVCAR-3 ovarian; 22.1 µM with CAKI-1 renal; 28.4 µM in the experiment with TK-10 renal; 26.3 µM in the experiment on UACC-257 melanoma; 23 µM in the experiment with SNB-75 CNS; 3.53 µM in the experiment on HL-60(TB) leukemia. For the same compound, the TGI turned out to be 9.19 µM with SN12C renal, 11.5 µM in the experiment with EKVX NSCLC, 16.7 µM in the experiment on OVCAR-5 ovarian and 9.02 µM in the experiment with SK-MEL-28 melanoma.
As for `CCN1CCC(O)(c2ccccc2)C(C(=O)c2ccccc2)C1` (stereo not given), the TGI was 31.2 µM with OVCAR-3 ovarian; 19.3 µM in the experiment with CAKI-1 renal; 47.3 µM with TK-10 renal; 46.5 µM in the experiment on UACC-257 melanoma; greater than 100 µM in the experiment with SNB-75 CNS; 46.8 µM with HL-60(TB) leukemia. Further, the TGI with SN12C renal is greater than 31.6 µM; with EKVX NSCLC, greater than 76.4 µM; with OVCAR-5 ovarian, 37.5 µM; with SK-MEL-28 melanoma, 33.4 µM.
Turning to `Fc1cccc(C=NC23CC4CC(CC(C4)C2)C3)c1`, the TGI with OVCAR-3 ovarian, in the experiment with CAKI-1 renal, with TK-10 renal, in the experiment with UACC-257 melanoma, in the experiment on SNB-75 CNS and with HL-60(TB) leukemia was greater than 100 µM throughout. Further, the TGI in the experiment with SN12C renal, in the experiment with EKVX NSCLC, with OVCAR-5 ovarian and with SK-MEL-28 melanoma was greater than 100 µM throughout.
For `CN(C)CC1CCCC(CN(C)C)C1=O` (stereo not given), the TGI with OVCAR-3 ovarian is 5.47 µM and 3.64 µM; in the experiment on CAKI-1 renal, 3.12 µM and 0.858 µM; in the experiment on TK-10 renal it was 7.88 µM and 2.63 µM; with UACC-257 melanoma, 4.49 µM and 5.8 µM; in the experiment with SNB-75 CNS, 29.8 µM and 31.1 µM; in the experiment on HL-60(TB) leukemia it was 2.03 µM and 7.45 µM. Besides, the TGI in the experiment on SN12C renal was 5.78 µM and 18.4 µM; in the experiment with EKVX NSCLC, 17.8 µM and 14.1 µM; with OVCAR-5 ovarian, 32.7 µM and 33.7 µM; in the experiment on SK-MEL-28 melanoma, 5.21 µM and 33.8 µM. In addition, the GI50 with CAKI-1 renal is 1.39 µM and 0.259 µM; in the experiment on TK-10 renal, 2.81 µM and 0.861 µM; in the experiment on HL-60(TB) leukemia, 0.612 µM and 2.85 µM; in the experiment with SN12C renal it was 2.58 µM and 7.36 µM; in the experiment on SK-MEL-28 melanoma, 2.17 µM and 18.3 µM.
As for `C[CH2][Sn]([CH2]C)([O]C(=O)c1cc(OC)c(OC)c(OC)c1)[O][Sn]([CH2]C)([CH2]C)[O]C(=O)c1cc(OC)c(OC)c(OC)c1`, the GI50 was greater than 64.4 µM in the experiment on OVCAR-3 ovarian; 15.7 µM with CAKI-1 renal; 18.9 µM in the experiment on TK-10 renal; 21.3 µM in the experiment with UACC-257 melanoma; 28.6 µM in the experiment on SNB-75 CNS; 35.1 µM in the experiment with HL-60(TB) leukemia. Further, the GI50 with SN12C renal is 44 µM; with EKVX NSCLC, greater than 53.9 µM; in the experiment on OVCAR-5 ovarian, greater than 100 µM; in the experiment on SK-MEL-28 melanoma, 18.4 µM. Besides, the TGI in the experiment with OVCAR-3 ovarian was greater than 100 µM; with CAKI-1 renal, 29.8 µM; with TK-10 renal it was 33.6 µM; in the experiment on UACC-257 melanoma, 52 µM; with SNB-75 CNS, greater than 88.7 µM; with HL-60(TB) leukemia, greater than 100 µM. Besides, the TGI in the experiment on SN12C renal was 99.4 µM; with EKVX NSCLC it was greater than 94.8 µM; in the experiment on OVCAR-5 ovarian, greater than 100 µM; in the experiment with SK-MEL-28 melanoma, 33.4 µM.
